Here are results for six compounds from PMC6943726, “Discovery of 8-Amino-Substituted 2-Phenyl-2,7-Naphthyridinone Derivatives as New c-Kit/VEGFR-2 Kinase Inhibitors” (Molecules, 2019).

Common to all, as to assay type: biochemical
In assay [1] the target is T1, MET (Homo sapiens, UniProt P08581).
T1 construct: was evaluated using an enzyme assay with a recombinant kinase domain; purchased Invitrogen (Carlsbad, CA, US)
The assay can be described thus: HTRF enzyme assay with recombinant MET kinase domain. Conditions: purified recombinant MET kinase domain, read-out: Inhibitory Activity, IC50, MET. The method, then: (§1) The ability of the synthesized compounds to inhibit MET, c-Kit, and VEGFR-2 activities was evaluated using an enzyme assay with a recombinant kinase domain [29]. Based on the structure activity relationship (SAR) of MET inhibitors, we proposed that the removal of the key diaryl ether fragments in compound 3 would result in a loss of MET activity.
(§2) The ability of compounds to inhibit the activity of three kinases (MET, c-Kit, and VEGFR-2) was tested in vitro [30]. Enzyme assays were run in homogeneous time-resolved fluorescence (HTRF) format in 384-well microtiter plates using purified kinases purchased from Invitrogen (Carlsbad, CA, US). The HTRF KinEASE TK kit (contains substrate-biotin, antibody-cryptate, streptavidin-XL665, 5×enzymatic buffer, and detection buffer) was purchased from Cisbio (Codolet, France), and the kinase assays were performed according to the manufacturer’s instructions. After the kinases and the compounds incubated at 25~30 °C for 5 min, the reactions were initiated by the addition of 2 μL of mixed substrate solution (mixed solution of ATP (Sigma, Shanghai, China) and substrate-biotin). The final concentrations of kinases were at EC80 and the total reaction volume was 8 μL. Plates were incubated at 30 °C for 30~60 min, then the reactions were quenched by the addition 8 μL mixed detection solution (mixed solution of antibody-cryptate and streptavidin-XL665 in detection buffer). The fluorescence excitation wavelength was […]. The fluorescence at 665 nm (acceptor emission wavelength) and 620 nm (donor emission wavelength) was measured with a PHERAstar FS plate reader (BMG, LABTECH, Ortenberg, Germany) using a time delay of 50 μs. All kinase assays were conducted using ATP concentrations below the enzyme Kmapp and kinase-specific biotinylated substrate peptides.
(§3) The data for dose responses were plotted as percentage of inhibition calculated with the data reduction formula 100 × [1 − (U1 − C2)/(C1 − C2)] versus concentration of compound, where U is the emission ratio of 665 nm and 620 nm of test sample, C1 is the average value obtained for solvent control (2% DMSO), and C2 is the average value obtained for no reaction control (no kinase sample). Inhibition curves were generated by plotting percentage of control activity versus log10 of the concentration of each […]. The IC50 values were calculated by nonlinear regression with Graphpad Prism 5 (GraphPad Software, San Diego, CA).
A general note: TR-FRET usually uses a lanthanide donor and a delayed reading to cut background.

Assay [2] addresses T2, c-Kit (Homo sapiens, UniProt P10721).
T2 construct: was evaluated using an enzyme assay with a recombinant kinase domain; purchased Invitrogen (Carlsbad, CA, US)
The assay can be described thus: HTRF enzyme assay with recombinant c-Kit kinase domain. As to conditions: for IC50: purified recombinant c-Kit kinase domain, HTRF, read-out: Inhibitory Activity, IC50, c-Kit. As for the experimental part:
as §1, §2, §3

Assay [3] addresses T3, VEGFR-2 (Homo sapiens, UniProt P35968).
T3 construct: was evaluated using an enzyme assay with a recombinant kinase domain; purchased Invitrogen (Carlsbad, CA, US)
The assay can be described thus: HTRF enzyme assay with recombinant VEGFR-2 kinase domain. As to conditions: for IC50: purified recombinant VEGFR-2 kinase domain, HTRF, read-out: Inhibitory Activity, IC50, VEGFR-2. As for the experimental part: as §1, §2, §3

T2 sequence (P10721 589-937 limits assumed): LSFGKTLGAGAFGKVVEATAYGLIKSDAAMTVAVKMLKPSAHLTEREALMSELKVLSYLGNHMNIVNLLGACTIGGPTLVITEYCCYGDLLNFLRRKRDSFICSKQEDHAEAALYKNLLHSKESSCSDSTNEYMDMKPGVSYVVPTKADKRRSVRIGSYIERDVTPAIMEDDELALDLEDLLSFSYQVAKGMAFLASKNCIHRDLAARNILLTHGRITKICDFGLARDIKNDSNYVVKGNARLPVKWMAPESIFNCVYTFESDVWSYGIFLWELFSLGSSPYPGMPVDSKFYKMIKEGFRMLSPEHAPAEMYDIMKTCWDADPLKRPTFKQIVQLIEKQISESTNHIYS
T1 sequence (P08581 1078-1345 limits assumed): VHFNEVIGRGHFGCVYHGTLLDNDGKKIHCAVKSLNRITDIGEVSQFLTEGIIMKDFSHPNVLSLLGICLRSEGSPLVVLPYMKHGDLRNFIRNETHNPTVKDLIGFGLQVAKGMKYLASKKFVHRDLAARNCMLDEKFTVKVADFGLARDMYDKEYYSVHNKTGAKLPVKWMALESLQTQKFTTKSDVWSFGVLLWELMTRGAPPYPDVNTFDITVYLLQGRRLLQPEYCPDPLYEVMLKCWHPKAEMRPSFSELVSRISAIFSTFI
T3 sequence (P35968 834-1162 limits assumed): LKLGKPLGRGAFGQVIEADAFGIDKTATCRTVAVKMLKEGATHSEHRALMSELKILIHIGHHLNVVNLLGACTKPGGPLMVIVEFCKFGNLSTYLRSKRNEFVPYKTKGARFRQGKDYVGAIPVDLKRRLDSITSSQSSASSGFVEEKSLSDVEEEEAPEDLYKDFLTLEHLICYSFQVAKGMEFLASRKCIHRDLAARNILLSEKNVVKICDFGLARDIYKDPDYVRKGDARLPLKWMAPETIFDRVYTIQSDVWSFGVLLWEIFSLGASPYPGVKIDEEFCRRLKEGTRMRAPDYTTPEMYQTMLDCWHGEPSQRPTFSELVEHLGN

For orientation: IC50 means the concentration that gives 50% inhibition. For the compound `Cc1cc2ccnc(NCc3cccnc3)c2c(=O)n1-c1ccc(OC(F)(F)F)cc1` [Compound 10n, 3-methyl-8-((pyridin-3-ylmethyl)amino)-2-(4-(trifluoromethoxy)phenyl)-2,7-naphthyridin-1(2H)-one], the values for the IC50 in assay [1], in assay [2] and in assay [3] were greater than 5 µM, greater than 5 µM and greater than 5000 nM, respectively.

In the case of `Cc1cc2ccnc(NCc3ccncc3)c2c(=O)n1-c1ccc(OC(F)(F)F)cc1` [Compound 10o, 3-methyl-8-((pyridin-4-ylmethyl)amino)-2-(4-(trifluoromethoxy)phenyl)-2,7-naphthyridin-1(2H)-one], the IC50 in assay [1] is greater than 5 µM; in assay [2], greater than 5 µM; in assay [3], 538 nM.

Regarding `Cc1cc2ccnc(NCc3ccco3)c2c(=O)n1-c1ccc(OC(F)(F)F)cc1` [Compound 10p, 8-((furan-2-ylmethyl)amino)-3-methyl-2-(4-(trifluoromethoxy)phenyl)-2,7-naphthyridin-1(2H)-one], the IC50 was greater than 5 µM in assay [1], greater than 5 µM in assay [2] and greater than 5000 nM in assay [3].

As to `Cc1cc2ccnc(NCc3cccc4ccccc34)c2c(=O)n1-c1ccc(OC(F)(F)F)cc1` [Compound 10q, 3-methyl-8-((naphthalen-1-ylmethyl)amino)-2-(4-(trifluoromethoxy)phenyl)-2,7-naphthyridin-1(2H)-one], the IC50 in assay [1] is greater than 5 µM; in assay [2], greater than 5 µM; in assay [3], greater than 5000 nM.

For the compound `Cc1cc2ccnc(NCc3ccnc4ccccc34)c2c(=O)n1-c1ccc(OC(F)(F)F)cc1` [Compound 10r, 3-methyl-8-((quinolin-4-ylmethyl)amino)-2-(4-(trifluoromethoxy)phenyl)-2,7-naphthyridin-1(2H)-one], the IC50 in assay [1] was greater than 5 µM; in assay [2], 0.169 µM; in assay [3] it was 31.7 nM. For the same compound, in assay [2], the “c-Kit inhibitory activity (in words)” value is on record as “slightly stronger c-Kit inhibitory activity than compound 3”. The “c-Kit potency relative to compound 9g” value in assay [2] (compared with 9g) is recorded as “five-times more potent than compound 9g”. Also, the “VEGFR-2 potency, fold more potent than compound 3” value in assay [3] (ratio of IC50 values vs compound 3) is reported as 5.0–8.8 fold.

Take `Cc1cc2ccnc(NCc3ccnc4ccccc34)c2c(=O)n1-c1ccc(F)cc1F` [Compound 10s, 2-(2,4-difluorophenyl)-3-methyl-8-((quinolin-4-ylmethyl)amino)-2,7-naphthyridin-1(2H)-one]: the results for the IC50 in assay [1], in assay [2] and in assay [3] were greater than 5 µM, greater than 5 µM and 887 nM, respectively.
